From patent US6048529A, “PVA or PEG conjugates of peptides for epitope-specific immunosuppression” (priority 1995, dated 2000)
“Also recorded” adds a separate entry of the source. Where a SMILES comes first, the peptide text is derived from it. Bridges are numbered along the chain shown (N, C = ends). Where no end group is shown, it is not given here.

Experiments:
[1] = test system: experimental autoimmune myasthenia gravis (EAMG); experiment: Electrophysiological EAMG: EMG during repetitive nerve stimulation after immunization with Torpedo AChR; type: in vivo, C57/BL6 mice; conditions: for proportion of mice showing a decremental response greater than 10%: 5 μg i.p. at 11, 7 and 3 days before immunization with Torpedo AChR, EMG on days 38-39
Protocol: Six weeks old C57/BL6 mice were purchased from Charles River Breeding Laboratories (Wilmington, Mass.). Preimmune sera were obtained from the mice for use as controls in subsequent antibody binding assays. […] Then, on day 0, the mice were immunized subcutaneously in one hind footpad and intramuscularly in the same side shoulder with 20 μg of Torpedo AChR in 100 μl emulsion containing equal volumes of complete Freund's adjuvant and PBS. Thirty days later, the mice were immunized with a similar dose of the receptor in the opposite footpad and shoulder. On the 37th day, test bleeds were obtained from the mice for determination of the antibody titers. Electrophysiological studies were performed on the 38th and 39th days. Finally, the mice were sacrificed on the 40th day and lymph node cells were obtained for Electrophysiological Studies To document the electrophysiological evidence of EAMG, amplitudes of serial muscle action potentials were measured by electromyography (EMG) during the repetitive stimulation of the nerve in immunized mice, using the Mystro EMG system (TECA Corporation). A pair of wire electrodes were surgically implanted, encircling the sciatic nerve, two days before EMG. The nerve was stimulated through the implanted electrodes by 3 Hz trains of supramaximal electric current with a duration of 200 microseconds. The corresponding muscle action potentials were recorded with an electrode subcutaneously inserted over the gastrocnemius muscle. A reference electrode was placed at the ankle. Ether inhalation was used during the surgical and recording procedures. […] Students' t-test was used to analyze the differences of amplitude changes between the two groups. A typical myasthenic response of a greater than 10% decrement was considered to constitute an electrophysiological evidence of EAMG. The frequency of electrophysiological EAMG was calculated in each group and analyzed by chi-square test.

peptide α125-148 = experiment: Radioimmunoassay of anti-AChR antisera: antibody binding to peptide α125-148; type: in vivo, C57/BL6 mice; conditions: for binding to peptide α125-148 of antibodies in pooled antisera at serial dilutions (in words): pooled antisera of each group, compared with the other groups
Protocol: (§1) Six weeks old C57/BL6 mice were purchased from Charles River Breeding Laboratories (Wilmington, Mass.). Preimmune sera were obtained from the mice for use as controls in subsequent antibody binding assays. After 2-weeks rest, the mice were divided into three groups which received, at eleven, seven and three days before immunization with AChR, an intraperitoneal injection (5 μg in 25 μl of PBS) of either the mPEG-(α125-148) conjugate (Group 1), mPEG-nonsense peptide conjugate (Group 2) or unaltered free peptide α125-148 (Group 3) (FIG. 5). Then, on day 0, the mice were immunized subcutaneously in one hind footpad and intramuscularly in the same side shoulder with 20 μg of Torpedo AChR in 100 μl emulsion containing equal volumes of complete Freund's adjuvant and PBS. Thirty days later, the mice were immunized with a similar dose of the receptor in the opposite footpad and shoulder. On the 37th day, test bleeds were obtained from the mice for determination of the antibody titers. Electrophysiological studies were performed on the 38th and 39th days. Finally, the mice were sacrificed on the 40th day and lymph node cells were obtained for
One mg of the synthetic peptide was dissolved in 50 μl dimethylformamide and then diluted with PBS to 25 μg/ml. A solution of Torpedo AChR in PBS was prepared to contain 2.5 μg/ml. Aliquots (50 μl/well) of the peptide or AChR solutions were added to a 96-well microtiter plate (Falcon Micro Test III flexible assay plate, Becton Dickinson, Oxcard, Calif.) and the plates were incubated at room temperature overnight. After washing 3 times with PBS, the plates were blocked with 0.25% bovine serum albumin (BSA) in PBS (50 μl/well) at 37° C. for 90 minutes. The plates were washed again 5 times with PBS and to each well was added 50 μl of the serum from AChR-immunized mice, pre-diluted with PBS containing 0.10% BSA, and the plates were covered and allowed to stand at room temperature overnight. After 5 washes with PBS, 50 μl of rabbit IgG antibodies (2.5 μg/ml) against mouse IgG and IgM (Accurate Chemical Scientific Corporation, Westbury, N.Y.) was added to each well and the plates were incubated at 37° C. for 3 hours. The plates were then washed 5 times with PBS and ^125 I-labeled protein A (2×10^5 cpm in 50 μl of PBS-0.1% BSA) was added to each well. The plates were incubated for 3 hours at room temperature, after which they were washed and the wells were cut out and counted for bound radioactivity. Pre-immune serum samples, obtained from the mice prior to any experimental treatments, were used as controls to correct for non-specific binding.

peptide α182-198 = experiment: Radioimmunoassay of anti-AChR antisera: antibody binding to peptide α182-198; type: in vivo, C57/BL6 mice; conditions: anti-AChR antisera of pretreated mice, versus control groups
Protocol: as §1, with “Finally, the mice were sacrificed on the 40th day and lymph node cells were obtained for” left out
(§2) One mg of the synthetic peptide was dissolved in 50 μl dimethylformamide and then diluted with PBS to 25 μg/ml. […] The plates were incubated for 3 hours at room temperature, after which they were washed and the wells were cut out and counted for bound radioactivity. […]

lymph node cells (LNC) = experiment: T cell proliferation assay of lymph node cells from pretreated, AChR-primed mice; type: in vivo, C57/BL6 mice; conditions: LNC 5×10^5 cells/well from pretreated mice after AChR immunization
Protocol: as §1, with “Thirty days later, the mice were immunized with a similar dose of the receptor in the opposite footpad and shoulder. On the 37th day, test bleeds were obtained from the mice for determination of the antibody titers. Electrophysiological studies were performed on the 38th and 39th days. Finally, the mice were sacrificed on the 40th day and lymph node cells were obtained for” left out
Lymph node cells (LNC) were harvested from the AChR-primed mice of each group ten or eleven days after the last AChR immunization. […] The number of viable cells was determined by vital staining with fluorescein diacetage (Rotman and Papermasters, 1966). […] After incubation for 3 days at 37° C. in a humidified air/CO2 (19:1) atmosphere, the cultures were pulsed (18 hr) with 1 μCi/well [^3 H]-thymidine (Research Products International, Mount Prospect, Ill,) and then harvested on to glass microfiber filters (Whatman, Clinton, N.J.) for counting of radioactivity by liquid scintillation.

whole Torpedo AChR = experiment: Radioimmunoassay of anti-AChR antisera: antibody binding to whole AChR; type: in vivo, C57/BL6 mice; conditions: anti-AChR antisera of pretreated mice, versus control groups
Protocol: as §1, with “Finally, the mice were sacrificed on the 40th day and lymph node cells were obtained for” left out
as §2

peptide α45-60 = experiment: Radioimmunoassay of anti-AChR antisera: antibody binding to peptide α45-60; type: in vivo, C57/BL6 mice; conditions: anti-AChR antisera of pretreated mice, versus control groups
Protocol: as §1, with “Finally, the mice were sacrificed on the 40th day and lymph node cells were obtained for” left out
as §2

[2] = in vivo; cited from earlier work
[3] = anti-AChR antisera of pretreated mice

With `CC[N+](C)(C)c1cccc(O)c1` [edrophonium chloride, reference compound] the “decremental amplitude after edrophonium chloride” value ([1]; EAMG-positive mouse with -33% decrement, 3 minutes after i.p. injection of 250 μg, 3 Hz stimulation) was -13% and the “effect on the typical myasthenic decremental response (in words)” value ([1]; i.p. injection of 250 μg) was “reversible”.
With `CC[C@H](C)[C@H](NC(=O)CNC(=O)[C@H](CC(C)C)NC(=O)[C@H](CCCCN)NC(=O)[C@H](CCSC)NC(=O)[C@@H](NC(=O)[C@@H]1CSSC[C@H](NC(=O)[C@H](Cc2ccc(O)cc2)NC(=O)[C@H](CO)NC(=O)[C@@H](N)CCCCN)C(=O)N[C@@H](CCC(=O)O)C(=O)N[C@@H]([C@@H](C)CC)C(=O)N[C@@H]([C@@H](C)CC)C(=O)N[C@@H](C(C)C)C(=O)N[C@@H]([C@@H](C)O)C(=O)N[C@@H](Cc2c[nH]cn2)C(=O)N[C@@H](Cc2ccccc2)C(=O)N2CCC[C@H]2C(=O)N[C@@H](Cc2ccccc2)C(=O)N[C@@H](CC(=O)O)C(=O)N[C@@H](CCC(N)=O)C(=O)N[C@@H](CCC(N)=O)C(=O)N[C@@H](CC(N)=O)C(=O)N1)[C@@H](C)O)C(=O)O` [free α125-148, reference compound] (H-KSYCEIIVTHFPFDQQNCTMKLGI-OH; disulfide 4-18) the “antibody response against peptide α125-148 (in words)” value (peptide α125-148; [3]) was “no decrease”, the “binding to peptide α125-148 of antibodies in pooled antisera at serial dilutions (in words)” value (peptide α125-148) was “consistently greater than the other two controls” and the “proportion of mice showing a decremental response greater than 10%” value [1] was 56%.
In the case of “mPEG-(α125-148): monomethoxypolyethylene glycol (MW 5000) succinate coupled to the N-terminal α-NH2 of Torpedo californica AChR peptide α125-148 ({mPEG 5000 succinate}-KSYCEIIVTHFPFDQQNCTMKLGI; disulfide 4-18 (inferred); UniProt P02710 149-172, looked up, fragment)”, the “antibody response against peptide α182-198 (in words)” value (peptide α182-198) is reported as “no significant suppression; also recorded: not significantly different”, the “antibody response against peptide α125-148 (in words)” value (peptide α125-148; [3]) is reported as “significantly decreased; also recorded: specific decrease” and the “antibody binding to peptide α125-148, mean net cpm±standard deviation” value (peptide α125-148; anti-AChR antisera of pretreated mice, test bleed day 37) is reported as 1414 ±1801 cpm. The “binding to peptide α125-148 of antibodies in pooled antisera at serial dilutions (in words)” value (peptide α125-148) was “considerably lower antibody binding; also recorded: consistently lower”, the “proportion of mice showing a decremental response greater than 10%” value [1] was 20% and the “effect on development of electrophysiological EAMG (in words)” value ([1]; injection before immunization with whole Torpedo AChR) was “suppresses development of electrophysiological EAMG but the suppression was incomplete; also recorded: suppressed the development of electrophysiological EAMG; also recorded: suppressed the development of experimental autoimmune myasthenia gravis (EAMG)”. The “T cell proliferative responses to peptide α125-148, AChR α-chain peptides or whole AChR (in words)” value (lymph node cells (LNC)) was “did not show meaningful differences; also recorded: not detected; also recorded: no detectable changes”, the “antibody response against whole AChR (in words)” value (whole Torpedo AChR) was “no significant suppression; also recorded: not significantly different; also recorded: not altered” and the “antibody response against peptide α45-60 (in words)” value (peptide α45-60) was “no significant suppression; also recorded: not significantly different”.
In the case of monomethoxypolyethylene glycol [mPEG], the “harmful or toxic effects in humans (in words)” value [2] is listed as “does not seem to have any harmful or toxic effects”.
